Reference: PMC5252617 (Pharmaceutical research, 2012)
Read-outs that look alike come from different tables or passages of the source.

Molecular target: T1, human apical sodium-dependent bile acid transporter (hASBT) (Homo sapiens, UniProt Q12908)
T1 sequence (Q12908 1-348): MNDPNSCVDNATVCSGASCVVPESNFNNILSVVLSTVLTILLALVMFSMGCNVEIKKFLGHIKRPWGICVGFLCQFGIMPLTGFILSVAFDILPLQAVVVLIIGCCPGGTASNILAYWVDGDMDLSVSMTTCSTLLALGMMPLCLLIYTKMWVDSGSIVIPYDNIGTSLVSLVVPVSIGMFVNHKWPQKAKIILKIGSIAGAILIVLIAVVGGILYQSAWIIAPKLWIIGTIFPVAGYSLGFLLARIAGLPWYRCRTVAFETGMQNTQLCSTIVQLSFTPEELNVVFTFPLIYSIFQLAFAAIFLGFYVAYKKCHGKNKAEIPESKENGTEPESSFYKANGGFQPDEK
Assay: time-dependent inactivation of [3H]-TCA uptake after pre-incubation, hASBT-MDCK
Format: cell-based

Structure (SMILES) | KI (inactivation) (read-out: 7α-Ms-CDCA) [nM] | KI (inactivation) (read-out: 3β-Cl-CDCA) [nM]
C[C@H](CCC(=O)O)[C@H]1CC[C@H]2[C@@H]3[C@H](OS(C)(=O)=O)C[C@@H]4C[C@H](O)CC[C@]4(C)[C@H]3CC[C@]12C [7α-Ms-CDCA, 3α-hydroxy-7α-mesyloxy-5β-cholan-24-oic acid] | 1190 ± 60 | 
C[C@H](CCC(=O)O)[C@H]1CC[C@H]2[C@@H]3[C@H](O)C[C@@H]4C[C@@H](Cl)CC[C@]4(C)[C@H]3CC[C@]12C [3β-Cl-CDCA, 3β-chloro-7α-hydroxy-5β-cholan-24-oic acid] |  | 810 ± 190
